Results reported in paper PMC3094853 (Chembiochem : a European journal of chemical biology, 2010).
Read-outs that look alike come from different tables or passages of the source.

How the values were obtained:
HER2 TK = HER2 TK (Homo sapiens, UniProt P04626); experiment: ELISA of biotinylated peptide phosphorylation; assay type: biochemical
HER1 TK = HER1 TK (Homo sapiens, UniProt P00533); experiment: ELISA of biotinylated peptide phosphorylation; assay type: biochemical; settings: 20 µM ATP; 1.5 µM peptide substrate; 5 mM MgCl2; 5 mM MnCl2; HEPES pH 7.5; 23 °C

Compound	IC50 (HER2 TK; 20 µM ATP, 1.5 µM peptide substrate, 5 mM MgCl2, 5 mM MnCl2, HEPES pH 7.5, 23 °C) [nM]	IC50 (HER1 TK) [nM]	IC50 (HER2 TK) [nM]
4-trifluoromethylcinnamoyl pyrone [2e]	160	330	–
COc1cc(/C=C(\C#N)C(N)=O)cc(CSc2nc3ccccc3s2)c1O [AG-825]	–	–	590
